As a reminder, the IC50 is the concentration at which inhibition is half-maximal. As a reminder, the Ki is a measure of affinity in units of concentration, obtained from inhibition or displacement.

Like-named read-outs stand apart in the source and are kept apart here. Peptide text beside a SMILES is read from it. * marks the point of attachment. Cbz = O=C(OCc1ccccc1)*

The target in series [1] is T1, β5 active site of the human 20S proteasome (Homo sapiens, UniProt P28074).
T1 construct: purchased Boston Biochem
The experiment in a line: Proteasome kinetic assay (β5 chymotrypsin-like active site). Type of series: biochemical. As to conditions: substrate Suc-LLVY-AMC 100 µM. Here is the method:
Human 20S proteasome, 700 KDa, was purchased from Boston Biochem (50 µg, 2 µM (1.4 mg/mL)) in 50 mM HEPES buffer (pH 7.6, 100 mM NaCl, 1 mM DTT). Assay buffer was prepared as follows: 20 mM HEPES buffer pH 7.8, 0.5 mM EDTA, 0.037% SDS. Proteasome specific substrate Suc-LLVY-AMC was purchased from Boston Biochem and used as a fluorogenic substrate; λex = 380 nm, λem = 442 nm. 18 µL of 2 µM proteasome solution was diluted with 425 µL H2O to make a 0.06 µM stock enzyme solution for kinetic assays. In a 96-well plate suitable for fluorometric assays was added 86 µL assay buffer, 2 µL inhibitor, 2 µL enzyme substrate, and 10 µL enzyme stock solution ([…] enzyme concentration in well). Fluorescence at 442 nM was monitored for 10 min. […] IC50 values were obtained from non-linear fitting of the data to a competitive inhibition model using GraphPad Prism 7.0 software. The proteasome β5 chymotrypsin-like active site activity assay was performed as previously described.

The conditions of series [2]: cited from earlier work.
For series [3], the target named is T2, human caspase-3 (Homo sapiens, UniProt P42574).
T2 construct: gift, Prof; Guy Salvesen's laboratory
T2 sequence (P42574 29-175 limits assumed): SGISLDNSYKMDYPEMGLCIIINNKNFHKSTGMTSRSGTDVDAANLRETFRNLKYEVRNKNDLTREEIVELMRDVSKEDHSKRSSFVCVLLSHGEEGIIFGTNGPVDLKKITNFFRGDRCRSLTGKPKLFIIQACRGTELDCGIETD
T2 sequence (P42574 176-277 limits assumed): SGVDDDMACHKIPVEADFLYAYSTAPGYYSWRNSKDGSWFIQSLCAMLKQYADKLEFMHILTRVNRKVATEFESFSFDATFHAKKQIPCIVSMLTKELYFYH
The experiment in a line: Caspase-3 kinetic assay. Type of series: biochemical. As to conditions: substrate Ac-DEVD-AMC 0.1 mM, 37 °C. Here is the method:
(§1) Caspase-3 and caspase-6 were generous gifts from Prof. Guy Salvesen’s laboratory and then used at Ohio State University. Caspase activities were measured in 100 mM HEPES, 10% sucrose, 0.1% CHAPS, 10 mM DTT, pH 7.5 at 37 °C. To 5,000 µL of this buffer, 100 µL of freshly prepared 1 M DTT and 4,900 µL DI H2O were added resulting in the caspase assay buffer. Studies were performed at 37 °C.
Caspase-3 specific substrate Ac-DEVD-AMC was purchased from Cayman Chemical Company and used as fluorogenic substrate; λex = 353 nm, λem = 442 nm. 2 µL of 33 µM caspase-3 solution was diluted with 4998 µL caspase assay buffer to make a 13.2 nM enzyme stock solution. In a 96-well plate suitable for fluorometric assays, 80 µL assay buffer, 5 µL inhibitor, 5 µL enzyme substrate (0.1 mM), and 10 µL enzyme stock solution were added. Fluorescence at 442 nM was monitored for 10 min. The enzyme activity was measured in triplicate at varying concentrations of inhibitor (0, 25, 50, 100 µM in DMSO) and substrate (0.1 mM in DMSO) by converting the slope of the plot of fluorescence intensity at 442 nm vs time for the time points between 4 and 8 min using Beer-Lambert’s law. IC50 values were obtained from non-linear fitting of the data to a competitive inhibition model using GraphPad Prism 7.0 software.

Series [4] deals with T3, human caspase-6 (Homo sapiens, UniProt P55212).
T3 construct: gift, Prof; Guy Salvesen's laboratory
T3 sequence (P55212 24-179 limits assumed): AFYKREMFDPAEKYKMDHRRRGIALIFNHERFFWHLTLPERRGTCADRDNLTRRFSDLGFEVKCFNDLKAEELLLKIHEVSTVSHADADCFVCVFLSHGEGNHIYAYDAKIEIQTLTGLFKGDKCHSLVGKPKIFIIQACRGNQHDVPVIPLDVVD
T3 sequence (P55212 194-293 limits assumed): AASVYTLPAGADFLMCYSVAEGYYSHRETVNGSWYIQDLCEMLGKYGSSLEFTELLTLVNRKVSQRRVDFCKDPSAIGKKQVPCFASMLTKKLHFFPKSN
In words: Caspase-6 kinetic assay. In kind it is biochemical. Particulars: for IC50: substrate Ac-VEID-AFC 0.1 mM, 37 °C. How it is done: as §1
Caspase-6 specific substrate Ac-VEID-AFC was purchased from ChemCruz and used as a fluorogenic substrate; λex = 400 nm, λem = 505 nm. To 45 µL of assay buffer, 5 µL of the 19.7 µM enzyme was added. This resulting enzyme solution was further diluted 1:5 with assay buffer resulting in a 0.32 µM solution. In a 96-well plate suitable for fluorometric assays was added 80 µL assay buffer, 5 µL inhibitor, 5 µL enzyme substrate (0.1 mM), and 10 µL enzyme stock solution (32 nM enzyme concentration in well). The enzyme activity was measured in triplicate at varying concentrations of inhibitor (0, 25, 50, 100 µM in DMSO) and substrate (0.1 mM in DMSO) by converting the slope of the plot of fluorescence intensity at 442 nm vs time for the time points between 4 and 8 min using Lambert-Beer’s law. IC50 values were obtained from non-linear fitting of the data to a competitive inhibition model using GraphPad Prism 7.0 software.

The target of series [5] is proteasome. Particulars: substrate Suc-LLVY-AMC, cited from earlier work; for Ki: read-out: previously reported Ki.
Series [6] has as its target S. mansoni legumain (Schistosoma mansoni, UniProt P09841). The experiment in a line: Legumain kinetic assay (S. mansoni). As to conditions: for IC50: substrate Cbz-AAN-AMC 50 µM, pH 5.5. In kind it is biochemical. How it is done: (§2) Schistosoma mansoni and Ixodes ricinus legumain zymogens were expressed in the yeast, Pichia pastoris, as described[36]^,[42]. Legumain kinetic assay details: zymogens were activated for 3 h (Ir) or overnight (Sm) at room temperature in 0.1 M Na-Ac pH 4.0; 5 mM DTT. Activities were measured in 0.1 M Na-Ac pH 5.5; 2.5 mM DTT, 0.1% PEG 6000 buffer. The substrate used was Cbz-AAN-AMC with 50 µM final concentration in the assay. Inhibitors were prepared in DMSO (1% DMSO in activity assay). Measurements were taken with an incubation period of 10 min at room temperature, and the enzyme activity was measured in triplicate. Asparaginyl Endopeptidase (AE) activity assay was performed as previously described.

The target of series [7] is I. ricinus legumain (Ixodes ricinus, UniProt Q6PRC7). The experiment in a line: Legumain kinetic assay (I. ricinus). Type of series: biochemical. How it is done: as §2
I. ricinus legumain, sequence (Q6PRC7 37-328 limits assumed): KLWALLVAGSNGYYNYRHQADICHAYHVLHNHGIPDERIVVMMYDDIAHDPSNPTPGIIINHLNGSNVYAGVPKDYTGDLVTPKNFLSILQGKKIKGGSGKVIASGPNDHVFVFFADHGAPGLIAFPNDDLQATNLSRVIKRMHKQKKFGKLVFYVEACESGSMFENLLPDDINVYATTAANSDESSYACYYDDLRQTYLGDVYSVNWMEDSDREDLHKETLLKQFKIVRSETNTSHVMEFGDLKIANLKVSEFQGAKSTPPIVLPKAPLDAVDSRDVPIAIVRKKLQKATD
For series [8], the target named is calpains and various lysosomal cathepsins. Also on record: method as in PMID 8087844. Particulars: cited from earlier work.
The mark [9] stands for this setting: at the highest concentration tested (100 µM).

S. mansoni legumain, sequence (P09841 32-291): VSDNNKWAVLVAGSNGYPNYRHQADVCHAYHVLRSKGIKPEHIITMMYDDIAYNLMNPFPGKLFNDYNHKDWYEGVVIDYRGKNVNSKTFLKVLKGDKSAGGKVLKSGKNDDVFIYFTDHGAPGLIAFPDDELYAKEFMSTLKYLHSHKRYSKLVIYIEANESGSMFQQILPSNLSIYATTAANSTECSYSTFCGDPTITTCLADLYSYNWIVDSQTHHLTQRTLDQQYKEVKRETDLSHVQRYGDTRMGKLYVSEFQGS

In series [1], `CC(=O)C(=O)N(CC(C)C)NC(=O)[C@H](CC(C)C)NC(=O)[C@H](CC(C)C)NC(=O)OCc1ccccc1` [Compound 4, Benzyl ((S)-1-(((S)-1–(2-isobutyl-2–(2-oxopropanoyl)hydrazinyl)-4-methyl-1-oxopentan-2-yl)amino)-4-methyl-1-oxopentan-2-yl)carbamate] registered an IC50 of 14.6 ± 2.39 µM.
On to `CC(C)C[C@H](NC(=O)[C@H](CCc1ccccc1)NC(=O)CN1CCOCC1)C(=O)N[C@@H](Cc1ccccc1)C(=O)N[C@@H](CC(C)C)C(=O)[C@@]1(C)CO1` [Carfilzomib, carfilzomib], for which the “adverse cardiovascular effects, share of patients” value in series [2] (treated patients) was “up to 30%”.
For `CC(C)[C@H](NC(=O)[C@H](CCC(=O)O)NC(=O)[C@H](CC(=O)O)NC(=O)OCc1ccccc1)C(=O)NN(CC(=O)O)C(=O)C(=O)Cc1ccccc1` [Compound 7, (5S,8S,11S)-8–(2-Carboxyethyl)-5-(carboxymethyl)-11-isopropyl-3,6,9,12-tetraoxo-14–(2-oxo-3-phenylpropanoyl)-1-phenyl-2-oxa-4,7,10,13,14-pentaazahexadecan-16-oic acid], the IC50 in series [3] was found to be 13.4 ± 4.61 µM; in series [4], 64.2 ± 45.4 µM.
On to `CC(C)C[C@H](NC(=O)OCc1ccccc1)C(=O)N[C@@H](CC(C)C)C(=O)NN(CC(C)C)C(=O)C=O` [Compound 3, Benzyl ((S)-1-(((S)-1–(2-isobutyl-2–(2-oxoacetyl)hydrazinyl)-4-methyl-1-oxopentan-2-yl)amino)-4-methyl-1-oxopentan-2-yl)carbamate], for which, in series [1], the IC50 was 9.02 ± 1.82 µM.
In the case of `CC(C)C[C@H](NC(=O)[C@H](Cc1ccccc1)NC(=O)c1cnccn1)B(O)O` [bortezomib], in series [2] (newly diagnosed multiple myeloma patients), the “peripheral neuropathy, share of patients” value is “up to 64%”.
For the molecule `CC(=O)C(=O)N(CC(=O)O)NC(=O)[C@@H](NC(=O)[C@H](CCC(=O)O)NC(=O)[C@H](CC(=O)O)NC(=O)OCc1ccccc1)C(C)C` [Compound 6, (5S,8S,11S)-8–(2-Carboxyethyl)-5-(carboxymethyl)-11-isopropyl-3,6,9,12-tetraoxo-14–(2-oxopropanoyl)-1-phenyl-2-oxa-4,7,10,13,14-pentaazahexadecan-16-oic acid], the IC50 in series [3] came to 7.74 ± 1.88 µM; in series [4], 51.9 ± 10.6 µM.
As to `CCC[C@@H](C=O)NC(=O)[C@H](CC(C)C)NC(=O)[C@H](CC(C)C)NC(=O)OCc1ccccc1` [MG115, Cbz-Leu-Leu-Nle-CHO], the inhibitory constant (Ki) in series [5] was 0.021 µM.
As for `CC[C@@H](C)[C@H](NC(=O)OCc1ccccc1)C(=O)N[C@@H](CCC(=O)O)C(=O)N[C@H](C(=O)NN(CC(=O)O)C(=O)C(C)=O)[C@H](C)O` [Compound 8, (5S,8S,11S)-5-((R)-s-butyl)-8–(2-carboxyethyl)-11-((S)-1-hydroxyethyl)-3,6,9,12-tetraoxo-14–(2-oxopropanoyl)-1-phenyl-2-oxa-4,7,10,13,14-pentaazahexadecan-16-oic acid], the half-maximal inhibitory concentration (IC50) was 122 ± 83.3 µM in series [3] and 9.08 ± 3.02 µM in series [4]. Moreover, in series [4] (ratio of IC50 caspase-3 / caspase-6), the “inhibits caspase-6 more effectively than caspase-3” value came out at 13 times.
Consider `CC(=O)C(=O)N(CC(N)=O)NC(=O)[C@H](C)NC(=O)[C@H](C)NC(=O)OCc1ccccc1` [Compound 10, Benzyl ((S)-1-(((S)-1–(2–(2-amino-2-oxoethyl)-2-(2-oxopropanoyl)hydrazinyl)-1-oxopropan-2-yl)amino)-1-oxopropan-2-yl)carbamate], for which, in series [6] (setting [9]), the “inhibition of S. mansoni legumain” value is recorded as “did not show inhibition”. Further, the IC50 was > 100 µM in series [6] and > 100 µM in series [7] (substrate Cbz-AAN-AMC 50 µM, pH 5.5, read-out: IC50 I. ricinus). The “inhibition of I. ricinus legumain” value in series [7] (setting [9]) is “did not show inhibition”.
`C[C@H](NC(=O)OCc1ccccc1)C(=O)N[C@@H](C)C(=O)NN(CC(N)=O)C(=O)C(=O)Cc1ccccc1` [Compound 11, Benzyl ((S)-1-(((S)-1–(2–(2-amino-2-oxoethyl)-2-(2-oxo-3-phenylpropanoyl)hydrazinyl)-1-oxopropan-2-yl)amino)-1-oxopropan-2-yl)carbamate]: the IC50 in series [6] was 22.2 ± 4.21 µM; in series [7], 17.8 ± 11.2 µM.
The molecule `CC(C)C[C@H](NC(=O)OCc1ccccc1)C(=O)N[C@@H](CC(C)C)C(=O)NN(CC(C)C)C(=O)C(=O)Cc1ccccc1` [Compound 5, Benzyl ((S)-1-(((S)-1–(2-isobutyl-2–(2-oxo-3-phenylpropanoyl)hydrazinyl)-4-methyl-1-oxopentan-2-yl)amino)-4-methyl-1-oxopentan-2-yl)carbamate] had a half-inhibitory concentration (IC50) in series [1] of 10.1 ± 4.49 µM.
As to `CC(C)C[C@@H](C=O)NC(=O)[C@H](CC(C)C)NC(=O)[C@H](CC(C)C)NC(=O)OCc1ccccc1` [MG132, Cbz-Leu-Leu-Leu-CHO] (Cbz-Leu-Leu-Leu-aldehyde), in series [5], the “previously reported Ki” value was “few nanomolar” and the Ki is 0.002 to 0.004 µM. Besides, the Ki in series [8] was 0.005 to 0.012 µM.

Source of the values: article PMC7470110, “Design, synthesis, and in vitro evaluation of aza-peptide aldehydes and ketones as novel and selective protease inhibitors” (Journal of Enzyme Inhibition and Medicinal Chemistry, 2020).
